This is an account of results in patent publication US8574563B2 (Bristol-Myers Squibb Company, priority 2006, dated 2013).

One assay relates to HCV 1b-377-neo replicon cells. The experiment in a line: HCV replicon assay, HCV 1b-377-neo replicon cells (1b FRET). Particulars: HCV 1b-377-neo replicon cells; HCV 1b genotype; read-out: EC50 range against HCV 1b (Table 2, Range). The class given is cell-based, Hepatitis C virus genotype 1b. Put shortly:
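Compounds were tested in genotype 1b subgenomic replicon cells carrying a neomycin marker, alongside a matched replicon line with an NS5A Y2065H substitution that confers resistance to a reference NS5A inhibitor.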
The EC50 is the midpoint of the concentration-response curve. Turning to `CC[C@@H](NC(=O)OC)C(=O)N1CCC[C@H]1c1ncc(-c2ccc(-c3ccc(-c4cnc([C@@H]5CCCN5C(=O)[C@@H](c5ccccc5)N(CC)CC)[nH]4)cc3)cc2)[nH]1` [Example M54, methyl ((1R)-1-(((2S)-2-(5-(4′-(2-((2S)-1-((2R)-2-(diethylamino)-2-phenylacetyl)-2-pyrrolidinyl)-1H-imidazol-5-yl)-4-biphenylyl)-1H-imidazol-2-yl)-1 pyrrolidinyl)carbonyl)propyl) carbamate], the EC50 lay in the range of 1 to 99 nM.

Staying with this assay, now noted: Hepatitis C virus, HCV 1b-377-neo replicon cells; HCV 1b genotype; read-out: EC50 range against HCV 1b (Table 2, Range).
For the compound `CCN(CC)[C@@H](C(=O)N1CCC[C@H]1c1ncc(-c2ccc(-c3ccc(-c4cnc([C@@H]5CCCN5C(=O)[C@H](NC(=O)OC)c5ccccc5)[nH]4)cc3)cc2)[nH]1)c1ccccc1` [Example M47, methyl ((1R)-2-((2S)-2-(5-(4′-(2-((2S)-1-((2R)-2-(diethylamino)-2-phenylacetyl)-2-pyrrolidinyl)-1H-imidazol-5-yl)-4-biphenylyl)-1H-imidazol-2-yl)-1-pyrrolidinyl)-2-oxo-1-phenylethyl)carbamate], the EC50 lay in the range of 1 to 99 nM. The same measure, in the same setting: as for `CCN(CC)[C@@H](C(=O)N1CCC[C@H]1c1ncc(-c2ccc(-c3ccc(-c4cnc([C@@H]5CCCN5C(=O)[C@@H](c5ccccc5)N5CCOCC5)[nH]4)cc3)cc2)[nH]1)c1ccccc1` [Example M48, (1R)-N,N-diethyl-2-((2S)-2-(5-(4′-(2-((2S)-1-((2R)-2-(4-morpholinyl)-2-phenylacetyl)-2-pyrrolidinyl)-1H-imidazol-5-yl)-4-biphenylyl)-1H-imidazol-2-yl)-1-pyrrolidinyl)-2-oxo-1-phenylethanamine], the figure is 1 to 99 nM; as for `CCN(CC)[C@@H](C(=O)N1CCC[C@H]1c1ncc(-c2ccc(-c3ccc(-c4cnc([C@@H]5CCCN5C(=O)[C@H](C)NC(=O)OC)[nH]4)cc3)cc2)[nH]1)c1ccccc1` [Example M49, methyl ((1S)-2-((2S)-2-(5-(4′-(2-((2S)-1-((2R)-2-(diethylamino)-2-phenylacetyl)-2-pyrrolidinyl)-1H-imidazol-5-yl)-4-biphenylyl)-1H-imidazol-2-yl)-1-pyrrolidinyl)-1-methyl-2-oxoethyl)carbamate], 1 to 99 nM.

For the compound `CCN(CC)[C@@H](C(=O)N1CCC[C@H]1c1ncc(-c2ccc(-c3ccc(-c4cnc([C@@H]5CCCN5C(=O)CNC(=O)OC)[nH]4)cc3)cc2)[nH]1)c1ccccc1` [Example M50, methyl (2-((2S)-2-(5-(4′-(2-((2S)-1-((2R)-2-(diethylamino)-2-phenylacetyl)-2-pyrrolidinyl)-1H-imidazol-5-yl)-4-biphenylyl)-1H-imidazol-2-yl)-1-pyrrolidinyl)-2-oxoethyl)carbamate], the EC50 was 1 to 99 nM.

Consider `CCN(CC)[C@@H](C(=O)N1CCC[C@H]1c1ncc(-c2ccc(-c3ccc(-c4cnc([C@@H]5CCCN5C(=O)N5CCOCC5)[nH]4)cc3)cc2)[nH]1)c1ccccc1` [Example M51, (1R)-N,N-diethyl-2-((2S)-2-(5-(4′-(2-((2S)-1-(4-morpholinylcarbonyl)-2-pyrrolidinyl)-1H-imidazol-5-yl)-4-biphenylyl)-1H-imidazol-2-yl)-1-pyrrolidinyl)-2-oxo-1-phenylethanamine], for which the EC50 lay within 1 to 99 nM. Still for that read-out and setting: as for `CCN(CC)[C@@H](C(=O)N1CCC[C@H]1c1ncc(-c2ccc(-c3ccc(-c4cnc([C@@H]5CCCN5C(=O)[C@@H](c5ccccc5)N(C)C)[nH]4)cc3)cc2)[nH]1)c1ccccc1` [Example M52, (1R)-2-((2S)-2-(5-(4′-(2-((2S)-1-((2R)-2-(diethylamino)-2-phenylacetyl)-2-pyrrolidinyl)-1H-imidazol-5-yl)-4-biphenylyl)-1H-imidazol-2-yl)-1-pyrrolidinyl)-N,N-dimethyl-2-oxo-1-phenylethanamine], the figure is 1 to 99 nM; as for `CCN(CC)[C@@H](C(=O)N1CCC[C@H]1c1ncc(-c2ccc(-c3ccc(-c4cnc([C@@H]5CCCN5C(=O)[C@@H](C)NC(=O)OC)[nH]4)cc3)cc2)[nH]1)c1ccccc1` [Example M53, methyl ((1R)-2-((2S)-2-(5-(4′-(2-((2S)-1-((2R)-2-(diethylamino)-2-phenylacetyl)-2-pyrrolidinyl)-1H-imidazol-5-yl)-4-biphenylyl)-1H-imidazol-2-yl)-1-pyrrolidinyl)-1-methyl-2-oxoethyl)carbamate], 1 to 99 nM; as for `CC[C@H](NC(=O)OC)C(=O)N1CCC[C@H]1c1ncc(-c2ccc(-c3ccc(-c4cnc([C@@H]5CCCN5C(=O)[C@@H](c5ccccc5)N(CC)CC)[nH]4)cc3)cc2)[nH]1` [Example M55, methyl ((1S)-1-(((2S)-2-(5-(4′-(2-((2S)-1-((2R)-2-(diethylamino)-2-phenylacetyl)-2-pyrrolidinyl)-1H-imidazol-5-yl)-4-biphenylyl)-1H-imidazol-2-yl)-1-pyrrolidinyl)carbonyl)propyl)carbamate], 1 to 99 nM.

As to `CCN(CC)[C@@H](C(=O)N1CCC[C@H]1c1ncc(-c2ccc(-c3ccc(-c4cnc([C@@H]5CCCN5C(=O)[C@H](NC(=O)OC)C5CC5)[nH]4)cc3)cc2)[nH]1)c1ccccc1` [Example M56, methyl ((1R)-1-cyclopropyl-2-((2S)-2-(5-(4′-(2-((2S)-1-((2R)-2-(diethylamino)-2-phenylacetyl)-2-pyrrolidinyl)-1H-imidazol-5-yl)-4-biphenylyl)-1H-imidazol-2-yl)-1-pyrrolidinyl)-2-oxoethyl)carbamate], the EC50 fell in the range of 1 to 99 nM. For `CCN(CC)[C@@H](C(=O)N1CCC[C@H]1c1ncc(-c2ccc(-c3ccc(-c4cnc([C@@H]5CCCN5C(=O)[C@@H](NC(=O)OC)C5CC5)[nH]4)cc3)cc2)[nH]1)c1ccccc1` [Example M57, methyl ((1S)-1-cyclopropyl-2-((2S)-2-(5-(4′-(2-((2S)-1-((2R)-2-(diethylamino)-2-phenylacetyl)-2-pyrrolidinyl)-1H-imidazol-5-yl)-4-biphenylyl)-1H-imidazol-2-yl)-1-pyrrolidinyl)-2-oxoethyl)carbamate], the EC50 lay within 1 to 99 nM. Still for that read-out and setting: as for `CCN(CC)[C@@H](C(=O)N1CCC[C@H]1c1ncc(-c2ccc(-c3ccc(-c4cnc([C@@H]5CCCN5C(=O)[C@@H](NC(=O)OC)C(C)C)[nH]4)cc3)cc2)[nH]1)c1ccccc1` [Example M58, methyl ((1S)-1-(((2S)-2-(5-(4′-(2-((2S)-1-((2R)-2-(diethylamino)-2-phenylacetyl)-2-pyrrolidinyl)-1H-imidazol-5-yl)-4-biphenylyl)-1H-imidazol-2-yl)-1-pyrrolidinyl)carbonyl)-2-methylpropyl)carbamate], the figure is 1 to 99 nM. Still for that read-out and setting: the figure for `CCN(CC)[C@@H](C(=O)N1CCC[C@H]1c1ncc(-c2ccc(-c3ccc(-c4cnc([C@@H]5CCCN5C(=O)[C@@H](NC(=O)OC)C(C)(C)C)[nH]4)cc3)cc2)[nH]1)c1ccccc1` [Example M59, methyl ((1S)-1-(((2S)-2-(5-(4′-(2-((2S)-1-((2R)-2-(diethylamino)-2-phenylacetyl)-2-pyrrolidinyl)-1H-imidazol-5-yl)-4-biphenylyl)-1H-imidazol-2-yl)-1-pyrrolidinyl)carbonyl)-2,2-dimethylpropyl)carbamate] is 1 to 99 nM; for `C=CC[C@H](NC(=O)OC)C(=O)N1CCC[C@H]1c1ncc(-c2ccc(-c3ccc(-c4cnc([C@@H]5CCCN5C(=O)[C@@H](c5ccccc5)N(CC)CC)[nH]4)cc3)cc2)[nH]1` [Example M60, methyl ((1S)-1-(((2S)-2-(5-(4′-(2-((2S)-1-((2R)-2-(diethylamino)-2-phenylacetyl)-2-pyrrolidinyl)-1H-imidazol-5-yl)-4-biphenylyl)-1H-imidazol-2-yl)-1-pyrrolidinyl)carbonyl)-3-buten-1-yl)carbamate] it is 1 to 99 nM. On the same count and under the same terms, the figure for `CCN(CC)[C@@H](C(=O)N1CCC[C@H]1c1ncc(-c2ccc(-c3ccc(-c4cnc([C@@H]5CCCN5C(=O)[C@H](COC)NC(=O)OC)[nH]4)cc3)cc2)[nH]1)c1ccccc1` [Example M61, methyl ((1S)-2-((2S)-2-(5-(4′-(2-((2S)-1-((2R)-2-(diethylamino)-2-phenylacetyl)-2-pyrrolidinyl)-1H-imidazol-5-yl)-4-biphenylyl)-1H-imidazol-2-yl)-1-pyrrolidinyl)-1-(methoxymethyl)-2-oxoethyl)carbamate] is 1 to 99 nM; for `CCC[C@H](NC(=O)OC)C(=O)N1CCC[C@H]1c1ncc(-c2ccc(-c3ccc(-c4cnc([C@@H]5CCCN5C(=O)[C@@H](c5ccccc5)N(CC)CC)[nH]4)cc3)cc2)[nH]1` [Example M62, methyl ((1S)-1-(((2S)-2-(5-(4′-(2-((2S)-1-((2R)-2-(diethylamino)-2-phenylacetyl)-2-pyrrolidinyl)-1H-imidazol-5-yl)-4-biphenylyl)-1H-imidazol-2-yl)-1-pyrrolidinyl)carbonyl)butyl)carbamate] it is 1 to 99 nM. Regarding `CCN(CC)[C@H](C)C(=O)N1CCC[C@H]1c1ncc(-c2ccc(-c3ccc(-c4cnc([C@@H]5CCCN5C(=O)[C@H](NC(=O)OC)c5ccccc5)[nH]4)cc3)cc2)[nH]1` [Example M63, methyl ((1R)-2-((2S)-2-(5-(4′-(2-((2S)-1-(N,N-diethyl-D-alanyl)-2-pyrrolidinyl)-1H-imidazol-5-yl)-4-biphenylyl)-1H-imidazol-2-yl)-1-pyrrolidinyl)-2-oxo-1-phenylethyl)carbamate], the EC50 was in the range of 1 to 99 nM. On the same count and under the same terms, the figure for `CCCN(CCC)[C@H](C)C(=O)N1CCC[C@H]1c1ncc(-c2ccc(-c3ccc(-c4cnc([C@@H]5CCCN5C(=O)[C@H](NC(=O)OC)c5ccccc5)[nH]4)cc3)cc2)[nH]1` [Example M64, methyl ((1R)-2-((2S)-2-(5-(4′-(2-((2S)-1-(N,N-dipropyl-D-alanyl)-2-pyrrolidinyl)-1H-imidazol-5-yl)-4-biphenylyl)-1H-imidazol-2-yl)-1-pyrrolidinyl)-2-oxo-1-phenylethyl)carbamate] is 1 to 99 nM.

In the case of `COC(=O)N[C@@H](C(=O)N1CCC[C@H]1c1ncc(-c2ccc(-c3ccc(-c4cnc([C@@H]5CCCN5C(=O)c5cnc[nH]5)[nH]4)cc3)cc2)[nH]1)c1ccccc1` [Example M65, methyl ((1R)-2-((2S)-2-(5-(4′-(2-((2S)-1-(1H-imidazol-5-ylcarbonyl)-2-pyrrolidinyl)-1H-imidazol-5-yl)-4-biphenylyl)-1H-imidazol-2-yl)-1-pyrrolidinyl)-2-oxo-1-phenylethyl)carbamate], the EC50 fell in the range of 1 to 99 nM.
